Key:
[1] = in vitro metabolic stability in human liver microsomes; type: in vitro ADME; conditions: human, liver microsomes, 0.5 μM compound, 0.5 mg/mL microsomes, NADPH, 40 min, 37° C.; read-out: Human liver microsome Clapp (apparent intrinsic clearance)
How it was run: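 Compounds at 0.5 μM incubated in duplicate with human liver microsomes (0.5 mg/mL), phosphate buffer and NADPH at 37 °C for 40 min, sampled at 0, 5, 10, 20, 40 min into cold acetonitrile. LC-TOF-MS depletion gave elimination rate constant, from which apparent intrinsic clearance (Clapp) was calculated.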

TYK2 = TYK2 (Homo sapiens (Human), UniProt P29597); assay: JAK kinase assay (HTRF), TYK2; type: biochemical; conditions: catalytic domain, ATP at Km (13 μM)
How it was run: (§1)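 Catalytic-domain human kinases, GST-tagged TYK2 (aa 871-1187) and His-tagged JAK3, phosphorylate 1 μM TK Substrate-Biotin for 20-30 min at RT in 50 mM Hepes pH 7.0, 5 mM MgCl2, ATP at Km (TYK2 13 μM with 50 nM SEB; JAK3 2 μM). Phosphorylation detected by HTRF.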

JAK2 = JAK2 (Homo sapiens (Human), UniProt O60674); assay: JAK kinase assay (HTRF), JAK2; type: biochemical; conditions: catalytic domain, ATP at Km (4 μM)
How it was run: (§2)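 Catalytic-domain human JAK1 (GST-tagged, aa 850-1154) or His-tagged JAK2, baculovirus-expressed, phosphorylated 1 µM biotinylated TK peptide at Km ATP (JAK1 7 µM, 10 mM MgCl2, 50 nM SEB; JAK2 4 µM, 5 mM MgCl2) in pH 7.0 Hepes, 20-30 min RT. EDTA stop; overnight streptavidin-XL665/cryptate HTRF read.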

JAK3 = JAK3 (Homo sapiens (Human), UniProt P52333); assay: JAK kinase assay (HTRF), JAK3; type: biochemical; conditions: catalytic domain, ATP at Km (2 μM)
How it was run: as §1

JAK1 = JAK1 (Homo sapiens (Human), UniProt P23458); assay: JAK kinase assay (HTRF), JAK1; type: biochemical; conditions: catalytic domain, ATP at Km (7 μM)
How it was run: as §2

JAK2, sequence (O60674 849-1124): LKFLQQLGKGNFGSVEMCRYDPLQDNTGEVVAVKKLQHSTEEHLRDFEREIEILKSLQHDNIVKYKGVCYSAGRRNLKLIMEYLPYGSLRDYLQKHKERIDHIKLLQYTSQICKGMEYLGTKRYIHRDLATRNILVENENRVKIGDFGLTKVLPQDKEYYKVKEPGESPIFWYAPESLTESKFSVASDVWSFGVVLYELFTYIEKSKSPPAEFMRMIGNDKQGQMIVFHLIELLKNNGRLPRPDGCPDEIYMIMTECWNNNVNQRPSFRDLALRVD
TYK2, sequence (P29597 871-1187): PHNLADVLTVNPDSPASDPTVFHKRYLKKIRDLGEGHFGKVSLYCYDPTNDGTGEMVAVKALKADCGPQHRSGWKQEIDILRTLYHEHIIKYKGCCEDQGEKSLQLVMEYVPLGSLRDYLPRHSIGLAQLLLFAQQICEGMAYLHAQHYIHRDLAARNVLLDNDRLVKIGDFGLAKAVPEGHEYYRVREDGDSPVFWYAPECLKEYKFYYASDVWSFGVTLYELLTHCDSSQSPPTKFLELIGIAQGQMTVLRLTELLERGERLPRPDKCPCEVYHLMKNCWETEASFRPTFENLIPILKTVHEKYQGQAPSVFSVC
JAK1, sequence (P23458 850-1154): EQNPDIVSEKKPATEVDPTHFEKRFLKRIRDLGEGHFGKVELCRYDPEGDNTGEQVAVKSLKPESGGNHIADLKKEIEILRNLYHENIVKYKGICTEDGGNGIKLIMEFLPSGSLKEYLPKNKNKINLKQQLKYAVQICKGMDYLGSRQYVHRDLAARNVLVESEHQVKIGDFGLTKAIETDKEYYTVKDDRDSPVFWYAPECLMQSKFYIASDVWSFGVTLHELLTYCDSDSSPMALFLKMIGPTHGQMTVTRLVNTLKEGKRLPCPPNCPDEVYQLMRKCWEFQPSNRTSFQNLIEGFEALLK
JAK3, sequence (P52333 822-1111): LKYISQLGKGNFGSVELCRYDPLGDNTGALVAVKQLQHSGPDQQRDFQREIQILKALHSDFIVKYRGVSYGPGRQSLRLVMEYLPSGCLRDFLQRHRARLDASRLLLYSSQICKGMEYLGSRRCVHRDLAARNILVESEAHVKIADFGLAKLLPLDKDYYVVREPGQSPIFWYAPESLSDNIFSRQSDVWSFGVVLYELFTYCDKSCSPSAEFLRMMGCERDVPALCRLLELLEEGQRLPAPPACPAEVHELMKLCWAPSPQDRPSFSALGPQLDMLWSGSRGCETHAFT

C[C@H](NC(=O)[C@H]1CCN(c2ncnc3[nH]ccc23)CC12CC2)[C@@H](O)C1CCCC1 [Example 5, (8S)-N-[(1S,2S)-2-cyclopentyl-2-hydroxy-1-methyl-ethyl]-5-(7H-pyrrolo[2,3-d]pyrimidin-4-yl)-5-azaspiro[2.5]octane-8-carboxamide]
CLint scaled at 0.5 μM [1]: > 200 mL/min/kg | EC50 (TYK2): 6.3 nM | EC50 (JAK2): 1.1 nM | EC50 (JAK3): 2.3 nM | EC50 (JAK1): 0.6 nM

C[C@H](NC(=O)[C@H]1CCN(c2ncnc3[nH]ccc23)CC12CC2)[C@@H](O)c1ccc(F)cn1 [Example 41, (8S)-N-[(1S,2R)-2-(5-fluoro-2-pyridyl)-2-hydroxy-1-methyl-ethyl]-5-(7H-pyrrolo[2,3-d]pyrimidin-4-yl)-5-azaspiro[2.5]octane-8-carboxamide]
CLint scaled at 0.5 μM [1]: 166 mL/min/kg | EC50 (TYK2): 33.5 nM | EC50 (JAK2): 5 nM | EC50 (JAK3): 48.9 nM | EC50 (JAK1): 2.5 nM

N#Cc1ccc(CNC(=O)[C@H]2CCN(c3ncnc4[nH]ccc34)CC23CC3)cc1F [Example 16, (8S)-N-[(4-cyano-3-fluoro-phenyl)methyl]-5-(7H-pyrrolo[2,3-d]pyrimidin-4-yl)-5-azaspiro[2.5]octane-8-carboxamide]
CLint scaled at 0.5 μM [1]: 180 mL/min/kg | EC50 (TYK2): 44.3 nM | EC50 (JAK2): 3.6 nM | EC50 (JAK3): 7.1 nM | EC50 (JAK1): 1 nM

C[C@H](NC(=O)[C@H]1CCN(c2ncnc3[nH]ccc23)CC12CC2)[C@H](O)c1ccc(F)cc1 [Example 45, (8S)-N-[(1S,2R)-2-(4-fluorophenyl)-2-hydroxy-1-methyl-ethyl]-5-(7H-pyrrolo[2,3-d]pyrimidin-4-yl)-5-azaspiro[2.5]octane-8-carboxamide]
CLint scaled at 0.5 μM [1]: > 200 mL/min/kg | EC50 (TYK2): 37.9 nM | EC50 (JAK2): 4.6 nM | EC50 (JAK3): 15.7 nM | EC50 (JAK1): 3.1 nM

Cc1ccc([C@H](O)CNC(=O)[C@H]2CCN(c3ncnc4[nH]ccc34)CC23CC3)cc1 [Example 64, (8S)-N-[(2S)-2-hydroxy-2-(p-tolyl)ethyl]-5-(7H-pyrrolo[2,3-d]pyrimidin-4-yl)-5-azaspiro[2.5]octane-8-carboxamide]
CLint scaled at 0.5 μM [1]: > 200 mL/min/kg | EC50 (TYK2): 90.9 nM | EC50 (JAK2): 6.7 nM | EC50 (JAK3): 28.5 nM | EC50 (JAK1): 4.5 nM

O=C(N[C@@H](CO)[C@@H](O)c1ccc(F)cc1)[C@H]1CCN(c2ncnc3[nH]ccc23)CC12CC2 [Example 9, (8S)-N-[(1S,2S)-2-(4-fluorophenyl)-2-hydroxy-1-(hydroxymethyl)ethyl]-5-(7H-pyrrolo[2,3-d]pyrimidin-4-yl)-5-azaspiro[2.5]octane-8-carboxamide]
CLint scaled at 0.5 μM [1]: > 200 mL/min/kg | EC50 (TYK2): 7.7 nM | EC50 (JAK2): 1.6 nM | EC50 (JAK3): 7 nM | EC50 (JAK1): 0.7 nM

C[C@H](NC(=O)C1CCN(c2ncnc3[nH]ccc23)CC12CC2)c1ccc(C#N)cc1 (stereo partly drawn) [Example 21, N-[(1S)-1-(4-cyanophenyl)ethyl]-5-(7H-pyrrolo[2,3-d]pyrimidin-4-yl)-5-azaspiro[2.5]octane-8-carboxamide]
CLint scaled at 0.5 μM [1]: 170 mL/min/kg | EC50 (TYK2): 52.1 nM | EC50 (JAK2): 2.5 nM | EC50 (JAK3): 7.7 nM | EC50 (JAK1): 1.1 nM

O=C(NCc1ccccc1)C1CCN(c2ncnc3[nH]ccc23)CC12CC2 (stereo not drawn) [Example 95, N-benzyl-5-(7H-pyrrolo[2,3-d]pyrimidin-4-yl)-5-azaspiro[2.5]octane-8-carboxamide]
CLint scaled at 0.5 μM [1]: 135 mL/min/kg | EC50 (TYK2): 502 nM | EC50 (JAK2): 17.9 nM | EC50 (JAK3): 31.6 nM | EC50 (JAK1): 8.6 nM

O=C(N[C@H](CO)C(=O)OCC1CC(F)(F)C1)[C@H]1CCN(c2ncnc3[nH]ccc23)CC12CC2 [Example 42, (3,3-difluorocyclobutyl)methyl (2R)-3-hydroxy-2-[[(8S)-5-(7H-pyrrolo[2,3-d]pyrimidin-4-yl)-5-azaspiro[2.5]octane-8-carbonyl]amino]propanoate]
CLint scaled at 0.5 μM [1]: > 200 mL/min/kg | EC50 (TYK2): 51.3 nM | EC50 (JAK2): 6.7 nM | EC50 (JAK3): 20.2 nM | EC50 (JAK1): 2.7 nM

O=C(NCC1(O)CCCC1)[C@H]1CCN(c2ncnc3[nH]ccc23)CC12CC2 [Example 49, (8S)-N-[(1-hydroxycyclopentyl)methyl]-5-(7H-pyrrolo[2,3-d]pyrimidin-4-yl)-5-azaspiro[2.5]octane-8-carboxamide]
CLint scaled at 0.5 μM [1]: 35 mL/min/kg | EC50 (TYK2): 43.4 nM | EC50 (JAK2): 15.1 nM | EC50 (JAK3): 26.1 nM | EC50 (JAK1): 3.4 nM

Cc1cc([C@H](CO)NC(=O)[C@H]2CCN(c3ncnc4[nH]ccc34)CC23CC3)ccc1C#N [Example 54, (8S)-N-[(1R)-1-(4-cyano-3-methyl-phenyl)-2-hydroxy-ethyl]-5-(7H-pyrrolo[2,3-d]pyrimidin-4-yl)-5-azaspiro[2.5]octane-8-carboxamide]
CLint scaled at 0.5 μM [1]: 142 mL/min/kg | EC50 (TYK2): 135 nM | EC50 (JAK2): 13.5 nM | EC50 (JAK3): 33 nM | EC50 (JAK1): 3.6 nM

N#Cc1ccc([C@H](CO)NC(=O)[C@H]2CCN(c3ncnc4[nH]ccc34)CC23CC3)cc1 [Example 18, (8S)-N-[(1R)-1-(4-cyanophenyl)-2-hydroxy-ethyl]-5-(7H-pyrrolo[2,3-d]pyrimidin-4-yl)-5-azaspiro[2.5]octane-8-carboxamide]
CLint scaled at 0.5 μM [1]: 44 mL/min/kg | EC50 (TYK2): 45.5 nM | EC50 (JAK2): 3.5 nM | EC50 (JAK3): 7.5 nM | EC50 (JAK1): 1 nM

O=C(NCC1(CO)CCCC1)[C@H]1CCN(c2ncnc3[nH]ccc23)CC12CC2 [Example 52, (8S)-N-[[1-(hydroxymethyl)cyclopentyl]methyl]-5-(7H-pyrrolo[2,3-d]pyrimidin-4-yl)-5-azaspiro[2.5]octane-8-carboxamide]
CLint scaled at 0.5 μM [1]: 118 mL/min/kg | EC50 (TYK2): 38 nM | EC50 (JAK2): 10.2 nM | EC50 (JAK3): 22.8 nM | EC50 (JAK1): 3.6 nM

O=C(NCC1(CO)CC(F)(F)C1)C1CCN(c2ncnc3[nH]ccc23)CC12CC2 (stereo not drawn) [Example 35, N-[[3,3-difluoro-1-(hydroxymethyl)cyclobutyl]methyl]-5-(7H-pyrrolo[2,3-d]pyrimidin-4-yl)-5-azaspiro[2.5]octane-8-carboxamide]
CLint scaled at 0.5 μM [1]: 41 mL/min/kg | EC50 (TYK2): 71.8 nM | EC50 (JAK2): 4.8 nM | EC50 (JAK3): 8.6 nM | EC50 (JAK1): 1.9 nM

N#Cc1ccc([C@@H](O)CNC(=O)[C@H]2CCN(c3ncnc4[nH]ccc34)CC23CC3)nc1 [Example 36, (8S)-N-[(2S)-2-(5-cyano-2-pyridyl)-2-hydroxy-ethyl]-5-(7H-pyrrolo[2,3-d]pyrimidin-4-yl)-5-azaspiro[2.5]octane-8-carboxamide]
CLint scaled at 0.5 μM [1]: 72 mL/min/kg | EC50 (TYK2): 70.5 nM | EC50 (JAK2): 8.7 nM | EC50 (JAK3): 25.2 nM | EC50 (JAK1): 2 nM

O=C(NC[C@@H](O)C1CCCC1)[C@H]1CCN(c2ncnc3[nH]ccc23)CC12CC2 [Example 32, (8S)-N-[(2S)-2-cyclopentyl-2-hydroxy-ethyl]-5-(7H-pyrrolo[2,3-d]pyrimidin-4-yl)-5-azaspiro[2.5]octane-8-carboxamide]
CLint scaled at 0.5 μM [1]: 159 mL/min/kg | EC50 (TYK2): 25.4 nM | EC50 (JAK2): 5.2 nM | EC50 (JAK3): 8.3 nM | EC50 (JAK1): 1.8 nM

N#Cc1ccc([C@@H](O)CNC(=O)[C@H]2CCN(c3ncnc4[nH]ccc34)CC23CC3)cc1 [Example 29, (8S)-N-[(2R)-2-(4-cyanophenyl)-2-hydroxy-ethyl]-5-(7H-pyrrolo[2,3-d]pyrimidin-4-yl)-5-azaspiro[2.5]octane-8-carboxamide]
CLint scaled at 0.5 μM [1]: 115 mL/min/kg | EC50 (TYK2): 40.4 nM | EC50 (JAK2): 2.9 nM | EC50 (JAK3): 6.5 nM | EC50 (JAK1): 1.4 nM

C[C@H](NC(=O)[C@H]1CCN(c2ncnc3[nH]ccc23)CC12CC2)[C@@H](O)C1CCCCC1 [Example 3, (8S)-N-[(1S,2S)-2-cyclohexyl-2-hydroxy-1-methyl-ethyl]-5-(7H-pyrrolo[2,3-d]pyrimidin-4-yl)-5-azaspiro[2.5]octane-8-carboxamide]
CLint scaled at 0.5 μM [1]: > 200 mL/min/kg | EC50 (TYK2): 6.2 nM | EC50 (JAK2): 1.1 nM | EC50 (JAK3): 3.4 nM | EC50 (JAK1): 0.5 nM

O=C(OCC1(CO)CS(=O)(=O)C1)[C@H]1CCN(c2ncnc3[nH]ccc23)CC12CC2 [Example 162, [3-(hydroxymethyl)-1,1-dioxo-thietan-3-yl]methyl (8S)-5-(7H-pyrrolo[2,3-d]pyrimidin-4-yl)-5-azaspiro[2.5]octane-8-carboxylate]
CLint scaled at 0.5 μM [1]: < 10 mL/min/kg | EC50 (TYK2): 3.6 nM | EC50 (JAK2): 0.6 nM | EC50 (JAK3): 1.5 nM | EC50 (JAK1): 0.2 nM

Cc1cc([C@@H](O)CNC(=O)[C@H]2CCN(c3ncnc4[nH]ccc34)CC23CC3)ncc1F (single isomer, unassigned) [Example 110]
CLint scaled at 0.5 μM [1]: 195 mL/min/kg | EC50 (TYK2): 188 nM | EC50 (JAK2): 26.3 nM | EC50 (JAK3): 75.3 nM | EC50 (JAK1): 11.1 nM

O=C(NCC1CCCC1)C1CCN(c2ncnc3[nH]ccc23)CC12CC2 (stereo not drawn) [Example 82, N-(cyclopentylmethyl)-5-(7H-pyrrolo[2,3-d]pyrimidin-4-yl)-5-azaspiro[2.5]octane-8-carboxamide]
CLint scaled at 0.5 μM [1]: 198 mL/min/kg | EC50 (TYK2): 400 nM | EC50 (JAK2): 11.5 nM | EC50 (JAK3): 38.7 nM | EC50 (JAK1): 6.8 nM

— patent US10799507B2, “5-(7H-pyrrolo[2,3-d]pyrimidin-4-yl)-5-azaspiro[2.5]octane-8-carboxylic acid derivatives as novel JAK kinase inhibitors” (LEO Pharma A/S, priority 2017, dated 2020)
